Results on one molecule are retold here after patent US8921569B2, “Rationally improved isoniazid and ethionamide derivatives and activity through selective isotopic substitution” (STC.UNM, priority 2007, dated 2014).

The test system of assay [1] is M bovis BCG. Format: cell-based. The note with it: O 1 micrograms per ml, 3 or 4 days after treatment, triplicate cultures.
In assay [2] the test system is M bovis BCG. Format: cell-based. Conditions: O 1 micrograms per ml, cultures at day 4 plated out.

Take `NN[13C](=O)c1ccncc1` [C13 INH, 4-pyridine-[^13C]carboxylic acid hydrazide]: the “antimicrobial effects by cultures optical density, compared with 12C isoniazid” value in assay [1] is given as “significant increase in activity”. For the same molecule, the “activity by CFU (colony forming units), compared with 12C isoniazid” value in assay [2] is given as “marked expected increase in activity”.
